Patent US20250000834A1, “COMPOSITIONS AND METHODS FOR TARGETING GPCR FOR THE PREVENTION AND TREATMENT OF PAIN” (Duke University, priority 2021, published 2025)
Blank lines part the entries; values can stand above or below the compound they belong to. Non-standard residues stand in square brackets, D forms with d. Residues, ends and D or L forms follow the SMILES beside them.

Legend:
[1] = test system: neuron-glia mixed cultures from DRG; assay: IL-1β release in SGC-neuron co-cultures from DRG (ELISA); assay type: cell-based, mouse; conditions: 1 μM for 24 h
Protocol: SGC and neuron co-culture: DRG were collected from wild-type (WT) or knock-out (KO) mice (8 weeks male) and incubated in 1 mg/ml Collagenase/Dispase (Roche Diagnostics, Madison, WI, USA) at 37° C. for 60 min, with agitation at 100 revolutions per minute (RPM) and then followed by incubation in 0.05% trypsin/EDTA for 10 min. The digestion enzymes were prepared in Dulbecco's modified Eagle medium/F12 with GlutaMAX (ThermoFisher, Waltham, MA). After incubation of 0.1% trypsin inhibitor and centrifugation (300 G), the cell pellet was gently triturated in a neurobasal medium containing […]. Dissociated DRG cells were seeded on non-coated culture dishes for 4 hrs. SGC and neurons were included for co-culture by hand-shaking of the culture flasks gently for 5 to 10 min and then resuspended by replacing with a new neurobasal medium. The attached glial-like cells were cultured in the DMEM/F12 medium containing 10% fetal bovine serum and 1% streptomycin/penicillin to promote cell growth and inhibition of differentiation. After 2 to 6 days, the glial-like cells were differentiated by application of the serum-free neural basal medium. […]

[2] = test system: Kir4.1 potassium channels in SGCs; assay: Patch-clamp recordings of K+ currents in SGCs of whole-mount DRG; assay type: cell-based, mouse
Protocol: Patch-clamp recordings in SGCs of whole-mount DRG: Under urethane anesthesia, mice were rapidly euthanized, followed by careful isolation of lumbar DRGs placed in the oxygenated artificial cerebral spinal fluid (aCSF). DRGs were briefly digested (20 min) using an enzymatic mixture consisting of collagenase A (1 mg/mL) and 0.32 mL Trypsin (0.25% original solution). Intact DRG were then incubated in aCSF oxygenated with 95% O2 and 5% CO2 at 34° C. Following incubation, DRG were transferred to a recording chamber. Isolated DRGs were transferred to a recording chamber continuously perfused (˜3 ml/min) with aCSF. SGCs in whole mouse DRGs could be visualized using a 40× water-immersion objective on an Olympus BX51WI microscope (Olympus Corp., Shinjuku, Japan). The round or fusiform-shaped cell bodies of SGCs were small (<10 μm) but visible near the edges of DRG neurons. Patch pipettes (Chase Scientific Glass Inc., Ramsey, MN) were pulled and filled with a pipette solution containing: 126 mM potassium gluconate, 10 mM NaCl, 1 mM MgCl2, 10 mM EGTA, 2 mM Na-ATP, and 0.1 mM Mg-GTP, adjusted to pH 7.3 with KOH. The resistance of pipettes was 10-12 MΩ. A Whole-cell patch-clamp configuration was made on SGCs at room temperature using a Multiclamp 700B amplifier (Axon Instruments, Union City, CA). Under voltage clamp, at a holding potential of −80 mV, inward or outward currents are triggered by voltage steps of −160 to +40 mV, with 20 mV increment in 200 ms (H. Zhang et al., Altered functional properties of satellite glial cells in compressed spinal ganglia. Glia 57, 1588-1599 (2009)). To isolate inwardly rectifying potassium current (Kir), potassium currents from the same cells were recorded in the absence and presence of 100 μM extracellular barium, which blocks the Kir4.1 channel (C. A. Doupnik, et al, The inward rectifier potassium channel family. Curr Opin Neurobiol 5, 268-277 (1995); X. Tong et al., Astrocyte Kir4.1 ion channel deficits contribute to neuronal dysfunction in Huntington's disease model mice. Nat Neurosci 17, 694-703 (2014)). The Kir4.1 currents were obtained by digitally subtracting those currents in the absence and presence of barium.
Kir4.1 potassium channels are the predominant potassium channels in SGCs and are chiefly responsible for the potassium currents in SGCs. Dysregulation of SGC Kir4.1 contributes to the pathogenesis of pain (M. Hanani, D. C. Spray, Emerging importance of satellite glia in nervous system function and dysfunction. Nat Rev Neurosci 21, 485-498 (2020)). SGC K^+ currents were recorded by conducting patch-clamp recordings in SGCs in whole-mount DRG preparation (data not shown; see U.S. Prov. No. 63/270,198, FIG. 7A), collected from WT mice, Gpr37l1^+/+ mice, and Gpr37l1^+/− mutant mice (FIG. 11A parts A-C).

hGPR37L1 [3] = molecular target: T1, hGPR37L1 (Homo sapiens, UniProt O60883); assay: Beta-arrestin assay (PathHunter hGPR37L1 CHO-K1); assay type: cell-based; conditions: hGPR37L1 ChoK1 cells, n=6; for β-arrestin signaling: 0.1 nM to 100 nM; for EC50: read-out: EC50 of β-arrestin response
T1 sequence (O60883 26-481): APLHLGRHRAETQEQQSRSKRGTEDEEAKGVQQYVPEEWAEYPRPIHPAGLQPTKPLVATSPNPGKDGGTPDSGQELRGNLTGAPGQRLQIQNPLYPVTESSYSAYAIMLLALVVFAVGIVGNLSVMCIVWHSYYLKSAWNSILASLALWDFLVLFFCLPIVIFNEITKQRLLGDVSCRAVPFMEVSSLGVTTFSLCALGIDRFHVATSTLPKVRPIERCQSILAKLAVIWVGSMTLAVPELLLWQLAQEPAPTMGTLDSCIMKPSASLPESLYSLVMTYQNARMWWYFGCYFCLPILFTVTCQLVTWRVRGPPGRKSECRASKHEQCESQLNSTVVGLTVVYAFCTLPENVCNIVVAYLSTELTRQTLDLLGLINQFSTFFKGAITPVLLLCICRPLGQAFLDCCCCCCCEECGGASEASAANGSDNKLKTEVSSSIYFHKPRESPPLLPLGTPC
Protocol: Beta-arrestin assay: To screen for GPR37L1 ligands, the PathHunter® eXpress GPR37L1 CHO-K1 kit was purchased from Eurofins Discoveryone™ (DiscoverX Solutions for Drug Discovery, Fremont, CA; Cat #93-0378E2ACP1M). CHO-K1 cells express human GPR37L1 and were grown in 96-well plates for 48 hours. Lipid compounds were incubated with the ChoK1 cells for 1 hour at 37° C., and GPR37L1 activation was determined by measuring chemiluminescence using the beta-arrestin 2 (β-arrestin) detection kit (DiscoverX Solutions for Drug Discovery, Fremont, CA). The luminescent activity was measured using an Infinite F200 Pro Illuminometer (Tecan Trading AG, Switzerland).
Eight different concentrations of compounds ranging from 0.1 nM to 100 nM were tested.

hGPR37L1 [4] = molecular target: T1, hGPR37L1; assay: Lipid-coated bead pull-down assay with hGPR37L1-expressing cells; assay type: binding; set-up: expressed in transfected cells; host or cells: HEK293 Flp-In cells; conditions: Western blot
Protocol: Lipid pull-down assay: Isolated membrane proteins were pre-adsorbed to uncoated control agarose beads (Vector Laboratories, Burlingame, CA); the unbound fraction was collected and incubated 24 hrs at 4° C. with lipid-coated agarose beads (S. Bang et al., GPR37 regulates macrophage phagocytosis and resolution of inflammatory pain. J Clin Invest 128, 3568-3582 (2018)). After extensive washing, bound proteins were eluted from the lipid-coated beads, suspended in Laemmli buffer containing 2% SDS (w/v) and 0.3-M β-mercaptoethanol (Sigma-Aldrich, St. Louis, MO), and heated 5 min at 95° C. to dissolve proteins before separation on 4-20% polyacrylamide/SDS gels as outlined above. The lysate proteins were detected by western blot.
Western blot: GPR37L1 proteins were isolated from transfected cells, lipid pull-down beads, and mouse DRG. The cells were placed on ice, washed with ice-cold phosphate-buffered saline (PBS), and harvested with ice-cold RIPA buffer (Sigma-Aldrich, St. Louis, MO) with Protease Inhibitor Cocktail Tablet (pH 7.4) (Roche Diagnostics, Indianapolis, IN). The cell lysates were centrifugated for removing insoluble debris and were calculated by BCA assay for detection of protein level, and the supernatant was mixed with 4× Laemmli buffer (Bio-Rad, Hercules, CA) and boiling. Protein samples were […] on 4-15% gradient SDS-PAGE gel (Bio-Rad, Hercules, CA) and blotted on PVDF membrane (Bio-Rad, Hercules, CA). Ponceau S staining was used for the detection of total proteins. The primary antibody was incubated with PBS+1% BSA at 4° C. overnight. We used the following primary antibodies: anti-GPR37L1 antibody (Bioss (Woburn, MA), Rabbit, 1:1000, #bs-15390R); anti-GAPDH antibody (Proteintech (Rosemont, IL), mouse, 1:2000, #60004); and anti-flag antibody (Cell Signaling Technologies (Danvers, MA), Rabbit, 1:1000, #14793). Blots were further incubated with an […] secondary anti-rabbit antibody (Jackson ImmunoResearch Laboratories (West Grove, PA), donkey, 1:5000), developed in ECL solution (Pierce Biotechnology, Appleton, WI)), and visualized in ChemiDoc XRS (Bio-Rad, Hercules, CA). Protein signal intensity was quantified by Image J software (NIH).
Next, a lipid-coated bead pull-down assay with hGPR37L1-expressing cells was used to confirm whether MaR1 would interact with GPR37L1 protein selectively. […] The right molecule size of GPR37L1 (˜50 kDa) was also validated by the anti-FLAG antibody (data not shown; see U.S. Prov. No. 63/270,198, FIG. 3E).

Compound: CC(=O)O[C@H]1C(=O)[C@@]2(C)[C@H]([C@H](OC(=O)c3ccccc3)[C@]3(O)C[C@H](OC(=O)[C@H](O)[C@@H](NC(=O)c4ccccc4)c4ccccc4)C(C)=C1C3(C)C)[C@]1(OC(C)=O)CO[C@@H]1C[C@@H]2O [PTX, paclitaxel, reference compound]
IL-1β secretion in culture medium [1]: marked increase
effect on K+ currents in SGCs ([2]; 1 μM, 60 min, WT-DRG): substantial reduction

β-arrestin signaling (hGPR37L1 [3]): 3.71 fold increase
EC50 (hGPR37L1 [3]): 9.8 nM
Compound: CC[C@H](C)[C@H](NC(=O)[C@H](CCC(=O)O)NC(=O)[C@H](CCC(=O)O)NC(=O)[C@@H](NC(=O)[C@H](C)NC(=O)[C@H](CC(N)=O)NC(=O)[C@H](CC(N)=O)NC(=O)[C@H](CC(=O)O)NC(=O)[C@@H](NC(=O)[C@H](CC(C)C)NC(=O)[C@@H](C)NC(=O)[C@@H](N)[C@@H](C)O)[C@@H](C)CC)[C@@H](C)O)C(=O)N[C@@H](CC(C)C)C(=O)N[C@@H](Cc1ccc(O)cc1)C(=O)O [TX14, reference compound] (H-T[dA]LIDNNATEEILY-OH; N-terminus and C-terminus assumed)

GPR37L1 binding in lipid-coated bead pull-down extracts (hGPR37L1 [4]): not binding
Compound: CC/C=C\C[C@H](O)[C@H](O)/C=C/C=C/C=C\C=C\[C@@H](O)C/C=C\CCC(=O)O [RvD2]

GPR37L1 binding in lipid-coated bead pull-down extracts (hGPR37L1 [4]): not binding
Compound: CC/C=C\C/C=C\C/C=C\C/C=C\C/C=C\C/C=C\CCC(=O)O [DHA, reference compound]

Compound: Barium [reference compound]
effect on total K+ currents in SGCs ([2]; 100 μM): largely blocked

GPR37L1 binding in lipid-coated bead pull-down extracts (hGPR37L1 [4]): some weak binding
β-arrestin signaling (hGPR37L1 [3]): 1.8 fold increase
EC50 (hGPR37L1 [3]): 1.74 nM
Compound: CC/C=C\C[C@H](O)\C=C/C=C/C=C/[C@H](O)C/C=C\C/C=C\CCC(=O)O [NPD1, Neuroprotectin D1]

GPR37L1 binding in lipid-coated bead pull-down extracts (hGPR37L1 [4]): not binding
Compound: CC/C=C\C[C@H](O)/C=C/C=C\C=C\C=C\[C@@H](O)[C@@H](O)C/C=C\CCC(=O)O [RvD1]
